Data on eleven substances can be found in patent US8519096B2, “Citrullinated peptides for diagnosing and prognosing rheumatoid arthritis” (Nestec S.A., priority 2009, dated 2013).

Non-standard residues stand in square brackets, D forms with d. *: point of attachment. Biotin = O=C1N[C@H]2[C@H](CS[C@H]2CCCCC(=O)*)N1; Cit = NC(=O)NCCC[C@H](N)C(=O)O

The first experiment relates to anti-citrullinated protein antibodies (ACPAs).
Experiment: not given
As to conditions: FIG. 3 and FIG. 7; compared with the other peptides tested. On the procedure: This example describes an enzyme-linked immunosorbent assay (ELISA) for detecting (e.g., measuring) the presence (or absence) or level of anti-citrullinated protein antibodies (ACPAs) in an individual's sample. As a non-limiting example, a 96-well immunoassay plate was coated with avidin (e.g., neutravidin) and the plate was blocked with 5% bovine serum albumin in phosphate buffered saline. Biotinylated synthetic citrullinated peptides of the present invention were incubated with the avidin-coated plate. […] Unbound samples were washed out and RA-associated autoantibodies directed against the immobilized citrullinated peptide were detected with an enzyme-labeled (e.g., HRP-labeled) anti-human IgA, IgG, IgM, or IgA/G/M secondary antibody.
Turning to “Biotin-GGGAT[Cit]SSAV[Cit]L[Cit]SSVPGV[Cit]LLQDS-NH2 [VMT5]”, the “dose-response curve in ACPA ELISA (in words)” value is “weak dose-response curve”.
On the same count and under the same terms, the result for “Biotin-HSTK[Cit]GHAKSRPV[Cit]G-NH2 [FB4]” reads “stronger dose-response curve”.
Still for that read-out and setting: as for “Biotin-[Cit]PAPPPISGGGY[Cit]A[Cit]-NH2 [FB3]”, the entry is “stronger dose-response curve”.

The next experiment has as its system IgG ACPAs. Put plainly: ACPA ELISA with anti-human IgG secondary antibody. As to conditions: Example 7, FIGS. 20-27. The format is binding. On the procedure:
The synthetic citrullnated peptides set forth in Example 6, which were designed from synovial proteins, were synthesized and evaluated for their ability to diagnose and/or prognose RA. […] The peptides were then tested for IgG ACPA dose-response in samples of synovial fluid taken from both healthy patients and patients with RA.
For orientation: ELISA stands for enzyme-linked immunosorbent assay.
Turning to “MLBS-1: synthetic citrullinated peptide derived from myeloblastin, Table 8 (Biotin-HS[Cit]PYMASLQM[Cit]GNPGSH-NH2; SMILES CSCC[C@H](NC(=O)[C@H](Cc1ccc(O)cc1)NC(=O)[C@@H]1CCCN1C(=O)[C@H](CCCNC(N)=O)NC(=O)[C@H](CO)NC(=O)[C@H](Cc1c[nH]cn1)NC(=O)CCCC[C@@H]1SC[C@@H]2NC(=O)N[C@@H]21)C(=O)N[C@@H](C)C(=O)N[C@@H](CO)C(=O)N[C@@H](CC(C)C)C(=O)N[C@@H](CCC(N)=O)C(=O)N[C@@H](CCSC)C(=O)N[C@@H](CCCNC(N)=O)C(=O)NCC(=O)N[C@@H](CC(N)=O)C(=O)N1CCC[C@H]1C(=O)NCC(=O)N[C@@H](CO)C(=O)N[C@@H](Cc1c[nH]cn1)C(N)=O)”, the “IgG ACPA positive response (strong/moderate)” value was “moderate”.
On the same count and under the same terms, as for “PL-SCRB: synthetic citrullinated peptide derived from PL scramblase, Table 8 (Biotin-TL[Cit]IIDNMGQEVITLE[Cit]PLRSITLERPL[Cit]SS-NH2; SMILES CC[C@H](C)[C@H](NC(=O)[C@H](CO)NC(=O)[C@H](CCCNC(=N)N)NC(=O)[C@H](CC(C)C)NC(=O)[C@@H]1CCCN1C(=O)[C@H](CCCNC(N)=O)NC(=O)[C@H](CCC(=O)O)NC(=O)[C@H](CC(C)C)NC(=O)[C@@H](NC(=O)[C@@H](NC(=O)[C@@H](NC(=O)[C@H](CCC(=O)O)NC(=O)[C@H](CCC(N)=O)NC(=O)CNC(=O)[C@H](CCSC)NC(=O)[C@H](CC(N)=O)NC(=O)[C@H](CC(=O)O)NC(=O)[C@@H](NC(=O)[C@@H](NC(=O)[C@H](CCCNC(N)=O)NC(=O)[C@H](CC(C)C)NC(=O)[C@@H](NC(=O)CCCC[C@@H]1SC[C@@H]2NC(=O)N[C@@H]21)[C@@H](C)O)[C@@H](C)CC)[C@@H](C)CC)C(C)C)[C@@H](C)CC)[C@@H](C)O)C(=O)N[C@H](C(=O)N[C@@H](CC(C)C)C(=O)N[C@@H](CCC(=O)O)C(=O)N[C@@H](CCCNC(=N)N)C(=O)N1CCC[C@H]1C(=O)N[C@@H](CC(C)C)C(=O)N[C@@H](CCCNC(N)=O)C(=O)N[C@@H](CO)C(=O)N[C@@H](CO)C(N)=O)[C@@H](C)O)”, the entry is “moderate”.
On the same count and under the same terms, the result for “T2α1-3: synthetic citrullinated peptide derived from collagen (Coll.T2α1), Table 8 (Biotin-KWGKTVIEY[Cit]SQKTSRLYRSQKTS[Cit]LG-NH2; SMILES CC[C@H](C)[C@H](NC(=O)[C@@H](NC(=O)[C@@H](NC(=O)[C@H](CCCCN)NC(=O)CNC(=O)[C@H](Cc1c[nH]c2ccccc12)NC(=O)[C@H](CCCCN)NC(=O)CCCC[C@@H]1SC[C@@H]2NC(=O)N[C@@H]21)[C@@H](C)O)C(C)C)C(=O)N[C@@H](CCC(=O)O)C(=O)N[C@@H](Cc1ccc(O)cc1)C(=O)N[C@@H](CCCNC(N)=O)C(=O)N[C@@H](CO)C(=O)N[C@@H](CCC(N)=O)C(=O)N[C@@H](CCCCN)C(=O)N[C@H](C(=O)N[C@@H](CO)C(=O)N[C@@H](CCCNC(=N)N)C(=O)N[C@@H](CC(C)C)C(=O)N[C@@H](Cc1ccc(O)cc1)C(=O)N[C@@H](CCCNC(=N)N)C(=O)N[C@@H](CO)C(=O)N[C@@H](CCC(N)=O)C(=O)N[C@@H](CCCCN)C(=O)N[C@H](C(=O)N[C@@H](CO)C(=O)N[C@@H](CCCNC(N)=O)C(=O)N[C@@H](CC(C)C)C(=O)NCC(N)=O)[C@@H](C)O)[C@@H](C)O)” reads “moderate”; that for “T9α1-1: synthetic citrullinated peptide derived from collagen (Coll.T9α1), Table 8 (Biotin-KRRP[Cit]FPVNSFQVDKAAS[Cit]AIQRVVGSRAIQ[Cit]VVGSA-NH2; SMILES CC[C@H](C)[C@H](NC(=O)[C@H](C)NC(=O)[C@H](CCCNC(=N)N)NC(=O)[C@H](CO)NC(=O)CNC(=O)[C@@H](NC(=O)[C@@H](NC(=O)[C@H](CCCNC(=N)N)NC(=O)[C@H](CCC(N)=O)NC(=O)[C@@H](NC(=O)[C@H](C)NC(=O)[C@H](CCCNC(N)=O)NC(=O)[C@H](CO)NC(=O)[C@H](C)NC(=O)[C@H](C)NC(=O)[C@H](CCCCN)NC(=O)[C@H](CC(=O)O)NC(=O)[C@@H](NC(=O)[C@H](CCC(N)=O)NC(=O)[C@H](Cc1ccccc1)NC(=O)[C@H](CO)NC(=O)[C@H](CC(N)=O)NC(=O)[C@@H](NC(=O)[C@@H]1CCCN1C(=O)[C@H](Cc1ccccc1)NC(=O)[C@H](CCCNC(N)=O)NC(=O)[C@@H]1CCCN1C(=O)[C@H](CCCNC(=N)N)NC(=O)[C@H](CCCNC(=N)N)NC(=O)[C@H](CCCCN)NC(=O)CCCC[C@@H]1SC[C@@H]2NC(=O)N[C@@H]21)C(C)C)C(C)C)[C@@H](C)CC)C(C)C)C(C)C)C(=O)N[C@@H](CCC(N)=O)C(=O)N[C@@H](CCCNC(N)=O)C(=O)N[C@H](C(=O)N[C@H](C(=O)NCC(=O)N[C@@H](CO)C(=O)N[C@@H](C)C(N)=O)C(C)C)C(C)C)”, “moderate”; that for “T9α1-4: synthetic citrullinated peptide derived from collagen (Coll.T9α1), Table 8 (Biotin-QHIKQVSM[Cit]VIQEHFAEMAASLK[Cit]G-NH2; SMILES CC[C@H](C)[C@H](NC(=O)[C@H](Cc1c[nH]cn1)NC(=O)[C@H](CCC(N)=O)NC(=O)CCCC[C@@H]1SC[C@@H]2NC(=O)N[C@@H]21)C(=O)N[C@@H](CCCCN)C(=O)N[C@@H](CCC(N)=O)C(=O)N[C@H](C(=O)N[C@@H](CO)C(=O)N[C@@H](CCSC)C(=O)N[C@@H](CCCNC(N)=O)C(=O)N[C@H](C(=O)N[C@H](C(=O)N[C@@H](CCC(N)=O)C(=O)N[C@@H](CCC(=O)O)C(=O)N[C@@H](Cc1c[nH]cn1)C(=O)N[C@@H](Cc1ccccc1)C(=O)N[C@@H](C)C(=O)N[C@@H](CCC(=O)O)C(=O)N[C@@H](CCSC)C(=O)N[C@@H](C)C(=O)N[C@@H](C)C(=O)N[C@@H](CO)C(=O)N[C@@H](CC(C)C)C(=O)N[C@@H](CCCCN)C(=O)N[C@@H](CCCNC(N)=O)C(=O)NCC(N)=O)[C@@H](C)CC)C(C)C)C(C)C)”, “strong”.
Same read-out and setting: the result for “T10α1-1: synthetic citrullinated peptide derived from collagen (Coll.T10α1), Table 8 (Biotin-KAGQ[Cit]PSLSGDKILYN[Cit]QQ[Cit]TGIFTSQIR-NH2; SMILES CC[C@H](C)[C@H](NC(=O)CNC(=O)[C@@H](NC(=O)[C@H](CCCNC(N)=O)NC(=O)[C@H](CCC(N)=O)NC(=O)[C@H](CCC(N)=O)NC(=O)[C@H](CCCNC(N)=O)NC(=O)[C@H](CC(N)=O)NC(=O)[C@H](Cc1ccc(O)cc1)NC(=O)[C@H](CC(C)C)NC(=O)[C@@H](NC(=O)[C@H](CCCCN)NC(=O)[C@H](CC(=O)O)NC(=O)CNC(=O)[C@H](CO)NC(=O)[C@H](CC(C)C)NC(=O)[C@H](CO)NC(=O)[C@@H]1CCCN1C(=O)[C@H](CCCNC(N)=O)NC(=O)[C@H](CCC(N)=O)NC(=O)CNC(=O)[C@H](C)NC(=O)[C@H](CCCCN)NC(=O)CCCC[C@@H]1SC[C@@H]2NC(=O)N[C@@H]21)[C@@H](C)CC)[C@@H](C)O)C(=O)N[C@@H](Cc1ccccc1)C(=O)N[C@H](C(=O)N[C@@H](CO)C(=O)N[C@@H](CCC(N)=O)C(=O)N[C@H](C(=O)N[C@@H](CCCNC(=N)N)C(N)=O)[C@@H](C)CC)[C@@H](C)O)” reads “moderate”; that for “T11α2-1: synthetic citrullinated peptide derived from collagen (Coll.T11α2), Table 8 (Biotin-GISPADVAY[Cit]VARPAQLYRVA[Cit]PAQLSAPT[Cit]QR-NH2; SMILES CC[C@H](C)[C@H](NC(=O)CNC(=O)CCCC[C@@H]1SC[C@@H]2NC(=O)N[C@@H]21)C(=O)N[C@@H](CO)C(=O)N1CCC[C@H]1C(=O)N[C@@H](C)C(=O)N[C@@H](CC(=O)O)C(=O)N[C@H](C(=O)N[C@@H](C)C(=O)N[C@@H](Cc1ccc(O)cc1)C(=O)N[C@@H](CCCNC(N)=O)C(=O)N[C@H](C(=O)N[C@@H](C)C(=O)N[C@@H](CCCNC(=N)N)C(=O)N1CCC[C@H]1C(=O)N[C@@H](C)C(=O)N[C@@H](CCC(N)=O)C(=O)N[C@@H](CC(C)C)C(=O)N[C@@H](Cc1ccc(O)cc1)C(=O)N[C@@H](CCCNC(=N)N)C(=O)N[C@H](C(=O)N[C@@H](C)C(=O)N[C@@H](CCCNC(N)=O)C(=O)N1CCC[C@H]1C(=O)N[C@@H](C)C(=O)N[C@@H](CCC(N)=O)C(=O)N[C@@H](CC(C)C)C(=O)N[C@@H](CO)C(=O)N[C@@H](C)C(=O)N1CCC[C@H]1C(=O)N[C@H](C(=O)N[C@@H](CCCNC(N)=O)C(=O)N[C@@H](CCC(N)=O)C(=O)N[C@@H](CCCNC(=N)N)C(N)=O)[C@@H](C)O)C(C)C)C(C)C)C(C)C)”, “strong”; that for “T11α2-4: synthetic citrullinated peptide derived from collagen (Coll.T11α2), Table 8 (Biotin-GH[Cit]AQRSPQQQPS[Cit]LHRPQNQE-NH2; SMILES CC(C)C[C@H](NC(=O)[C@H](CCCNC(N)=O)NC(=O)[C@H](CO)NC(=O)[C@@H]1CCCN1C(=O)[C@H](CCC(N)=O)NC(=O)[C@H](CCC(N)=O)NC(=O)[C@H](CCC(N)=O)NC(=O)[C@@H]1CCCN1C(=O)[C@H](CO)NC(=O)[C@H](CCCNC(=N)N)NC(=O)[C@H](CCC(N)=O)NC(=O)[C@H](C)NC(=O)[C@H](CCCNC(N)=O)NC(=O)[C@H](Cc1c[nH]cn1)NC(=O)CNC(=O)CCCC[C@@H]1SC[C@@H]2NC(=O)N[C@@H]21)C(=O)N[C@@H](Cc1c[nH]cn1)C(=O)N[C@@H](CCCNC(=N)N)C(=O)N1CCC[C@H]1C(=O)N[C@@H](CCC(N)=O)C(=O)N[C@@H](CC(N)=O)C(=O)N[C@@H](CCC(N)=O)C(=O)N[C@@H](CCC(=O)O)C(N)=O)”, “moderate”.
